According to patent US12616754B2, “Composition for delivery of a bioactive agent and method of manufacture and use thereof” (priority 2020, dated 2026):

Legend:
Test in all cases: Cell viability WST-8 assay
Assay type in all cases: cell-based
[1] = test system: H1299 non-small cell lung carcinoma cells; conditions: H1299, 24 h
Procedure: (§1) A549, BEAS-2B, H1299 and LL2 cells were cultured in 96-well plates at a density of 1×10^4 cells/well in DMEM supplemented with 2.0 mM L-glutamine, 50 μg/mL gentamicin, and 10% (v/v) fetal bovine serum at 37° C. in 5% CO2. Cells were then treated with various concentrations of free DOX, DNA NGs, and DNA-DOX NGs. After 24 h incubation, cell proliferation was evaluated using a WST-8 reagent (Dojindo Molecular Laboratories, Japan). After transferring the supernatant to 96-well plates, the supernatant was measured on a VersaMax Microplate Reader (Molecular Devices, Sunnyvale, CA, USA) at the wavelength of 405 nm. Cell viability was determined using the following equation: cell viability (%)=[(Abs405 nm in the treated sample cells−Abs405 nm in blank)/(Abs405 nm in untreated control cells−Abs405 nm in blank)]×100, wherein Abs405 nm refers to absorbance at 405 nm.

[2] = test system: BEAS-2B bronchial epithelial cells; conditions: 24 h
Procedure: as §1

[3] = test system: A549 lung adenocarcinoma cells; conditions: A549, 24 h
Procedure: as §1

[4] = test system: LL2 Lewis lung carcinoma cells; conditions: LL2, 24 h
Procedure: as §1

COc1cccc2c1C(=O)c1c(O)c3c(c(O)c1C2=O)C[C@@](O)(C(=O)CO)C[C@@H]3O[C@H]1C[C@H](N)[C@H](O)[C@H](C)O1.Cl [Free DOX, doxorubicin hydrochloride]
IC50 [1]: 18.9 µg/mL | IC50 [2]: 5.11 µg/mL | IC50 [3]: 2.92 µg/mL | IC50 [4]: 2.33 µg/mL
